# Test results published in patent US20030108872A1, “Genomics-assisted rapid identification of targets” (priority 2000, published 2003).
# Legend:
# Assay type in all cases: cell-based
# [1] = system: cells in which folA is regulated by PBAD, PLtetO-1, or Plac/ara-1; assay: MIC by microbroth dilution in E. coli under-expressing folA; conditions: FIG. 5
# Protocol: In another example, the wild-type native folA gene was knocked out, and a wild-type copy of the gene folA, which encodes the protein dihydrofolate reductase, was placed under ectopic expression in the yibD locus under regulation by PBAD with the regulator, L-arabinose. Dihydropteroate synthetase, the gene product of […], catalyzes the enzymatic reaction two steps before dihydrofolate reductase in the folate biosynthetic pathway.
# (§1) Methods. […] IPTG was added to a final concentration of 0.1 mM and anhydrous-tetracycline was added to a final concentration of 100 ng/ml to the culture media for routine growth of GTC-EC#313 and GTC-EC#346, respectively.
# (§2) The specificity and sensitivity of the resultant colonies to added drugs were followed by measuring the minimal inhibitory concentration (MIC) of trimethoprim, sulfamethozasone, phosphomycin and D-cycloserine at varying regulator levels. This was performed according to NCCLS (National Center for Clinical Laboratory Standards) recommendations(NCCLS, 1997, METHODS FOR DILUTION ANTIMICROBIAL SUSCEPTIBILITY TESTS FOR BACTERIA THAT GROW AEROBICALLY, 4th ed.; approved standard. NCCLS document M7-A4. NCCLS, Wayne, Pa.), in 100 μl volume in 96-well format, with serial two-fold dilutions of drug concentration.
# E. coli strain WO-153 = assay: Genome-wide E. coli ORFmer overexpression rescue (OER) assay
# Protocol: Over expression Rescue Assays. Over expression assays were conducted with the E. coli strain WO-153 described in Table 7. Construction of WO-0153. […] The asmB1 mutation is a G to A transition at position 628 in the 1pxC gene. […] The tolC gene encodes an outer membrane protein that acts as a channel for the acrAB efflux pumps (See for example, Fralick, J. 1996. J. Bacteriol. 178:5801-5805). […] WO-0153 was constructed as follows. The asmB1 mutation was introduced into a DNA fragment containing the 1pxC gene and 1 kb of the 5′ end of the secA gene by site directed mutagenesis of the 1pxC gene using standard methods. A kan^R resistance cassette flanked by FRT sites was introduced 60 bp downstream of the 1pxC gene. The linear DNA construct was introduced into electrocompetent and recombinogenic E. coli KM354 (pTP223) as described by Murphy (See for example, Murphy, 1998, J. Bacteriol. 180: 2063-71). Transformants were selected on LB agar containing kanamycin (35 mcg/ml) and screened for sensitivity to novobiocin (20 mcg/ml). The presence of the asmB1 mutation in clones with the expected phenotype was verified by DNA sequence analysis. The kanR gene flanked by FRT sites was then excised from the 1pxC-secA intergenic region using a previously described method (See for example, Cherepanove, P. P, and Wackernagel, W. 1995. Gene 158: 9-14.). […] 178:5138-5143; Fralick, J. (1996). J. Bacteriol. 178:5801-5805; Fralick, J. A., et al. (1994) J. Bacteriol. 176:6404-6406; and Cherepanove, P. P, et al., (1995) Gene 158:9-14. […] Plasmid library DNA was transformed into WO-153 by electroporation as described above. Cells were collected from transformation plates by scraping and were equalized to an optical density of 1.53 on a Beckman DU650 spectrophotometer([…]). Groups of five libraries were mixed and frozen in LB media plus 10% (vol/vol) glycerol by immersion in a dry-ice/ethanol bath for 5 minutes.
# Over-expression assays were performed in liquid media in a microtiter format, in a gradient plate format, or in a disk-diffusion format. The protocol used for the microtiter format was similar to the protocol described above for the MIC assay. Aliquots of 5 library pools spanning the genome were thawed at room temperature and 200 ul of each was inoculated into its own 20 ml of Mueller Hinton media containing ampicillin at 200 ug/ml and anhydrous tetracycline inducer as appropriate. Typically, replicates were performed using a number of final inducer concentrations, ranging from 0 to 100 ng/ml. Following an adequate mixing, 50 ul of inoculated media was mixed with 50 ul of the test antibiotic in Nunc brand 96-well microtiterplates. Typically, each group of five libraries was mixed with a range of concentrations of antibiotic spanning the minimum inhibitory concentration (MIC) of the antibiotic. […] Columns may contain 10 different groups of libraries as well as null vector and no innoculum controls. After mixing inoculum plus media with antibiotic, well contents were mixed by pipetting and incubated at 37° C. for 16 to 20 hours. Optical density at 600 nm was measured using a Molecular Devices SpectraMAX 250 spectrophotometer. […] Contents of wells showing rescue were transferred to LB agar plates containing ampicillin at 100 ug/ml, and were spread to obtain single colonies. Alternately, it is possible to maintain selection for the antibiotic being assayed by including it in the agar plates at this point.
# OER Assay using Disk diffusion and Gradient Plate Assay formats. In the Disk diffusion plate format, the 3 inocula (see below) were plated on MHB plates containing ampicillin (100 mcg/ml) and anhydrous tetracycline (a-tet, 100 ng/ml). Two paper disks (6 mm diameter) containing 10×and 20×MIC of the test antiobiotic were placed on the surface of the plate.
# [2] = system: B. subtilis NO-347 (BD170 thrC::Pspac-murA kanR ΔmurA::CmR); assay: MIC by microbroth dilution in B. subtilis under-expressing murA; conditions: IPTG 0-0.1 mM, compared to the control strain, FIG. 10
# Protocol: Materials and Methods. The materials are the same as discussed above. Plasmids are listed in Table 4 B. subtilis strains were routinely grown in LB media or on LB agar plates containing 1.5% agar (Sambrook et al., MOLECULAR CLONING: A LABORATORY MANUAL, 2nd ed., Cold Spring Harbor Laboratory Press, 1989). MIC determination is performed using microbroth dilution-cultures grown in Mueller Hinton broth in 96-well microtiter plates purchased from Nunc (Plates—Cat. No. 262162; Lids—Cat. No. 264122). When required, media were supplemented with 5 μg/ml chloramphenicol or 10 μg/ml kanamycin. IPTG was added to culture media at a final concentration of 0.05 mM for routine culture growth of B. subtilis NO-347 (BDI70 thrC::Pspac-murA kan^R ΔmurA::Cm^R), which is dependent on IPTG for growth.
# The endogenous murA gene in NO-360 was deleted by allelic replacement as follows (see FIG. 9). DNA fragments flanking the 5′ and 3′ ends of the murA gene were amplified from B. subtilis 168 genomic DNA using primer pairs KO mura F1+R2 and KO murA F2+R1, respectively. The 5′ and 3′ flanking fragments were linked to the Cm^R gene from pEVP3 using the cross-over PCR technique with the primer pair KO mura F1+R1. The resulting PCR product (shown in FIG. 9B) was used to transform naturally competent B. subtilis NO-360. Cm^R clones were selected in the presence of 0.01 mM and 0.05 mM IPTG. Allelic replacement of murA in Cm^R clones was verified by PCR. Strain NO-347 (BD170 thrC::Pspac-murA Kan^R ΔmurA::Cm^R) was chosen for MIC determinations for phosphomycin in presence of various concentrations of the regulator IPTG.
# MIC determinations. Determination of minimum inhibitory concentration (MIC) for phosphomycin, novobiocin, erythromycin and trimethoprim lactate were performed in 96-well microliter plates using the microbroth dilution technique as described in NCCLS. 1997. Methods for dilution antimicrobial susceptibility tests for bacteria that grow aerobically-fourth edition; approved standard. NCCLS document M7-A4. NCCLS, Wayne, Pa. For MIC determinations using strain NO-347, various concentrations (0-0.1 mM) were added to the media. Growth was quantitated by OD600 measurements using a SpectroMax 250 plate reader (Molecular Devices).
# [3] = system: cells in which murA is regulated by PBAD; assay: MIC by microbroth dilution in E. coli under-expressing murA; conditions: FIG. 6
# Protocol: The wild-type gene murA, which encodes the enzyme UDP-N-acetylglucosamine enolpyruvate transferase, was knocked out in E. coli, and the gene was placed under ectopic expression in the yibD locus under regulation by PBAD with the regulator, L-arabinose.
# as §1, §2
structure (smiles),measurement,setting,value
Cc1cc(NS(=O)(=O)c2ccc(N)cc2)no1 [sulfamethozasone],MIC with decreasing regulator (L-arabinose) level,[1],decreases
Oc1cc(Cl)ccc1Oc1ccc(Cl)cc1Cl [triclosan],PCR verification of OER clones: expected target gene,"E. coli strain WO-153; liquid microtiter assay, expected targets folA, murA, fabI",expected target gene was identifed
same,PCR verification of OER clones: expected clone,"E. coli strain WO-153; two plate assay format (disk diffusion, gradient plate)",expected clone was isolated
CC[C@H]1OC(=O)[C@H](C)[C@@H](O[C@H]2C[C@@](C)(OC)[C@@H](O)[C@H](C)O2)[C@H](C)[C@@H](O[C@@H]2O[C@H](C)C[C@H](N(C)C)[C@H]2O)[C@](C)(O)C[C@@H](C)C(=O)[C@H](C)[C@@H](O)[C@]1(C)O [erythromycin],sensitivity (MIC) on regulated under-expression of murA,[2],does not affect sensitivity
N[C@@H]1CONC1=O [D-cycloserine],"identity of OER clones that were not the expected gene, by sequence analyses",E. coli strain WO-153,closely related ddlB gene
same,OER clones that were not the expected ddlA gene,E. coli strain WO-153; PCR verification of OER clones,80%
same,sensitivity on under-expression of murA,[3],hypersensitivity
CO[C@@H]1[C@@H](OC(N)=O)[C@@H](O)[C@H](Oc2ccc3c(O)c(NC(=O)c4ccc(O)c(CC=C(C)C)c4)c(=O)oc3c2C)OC1(C)C [novobiocin],sensitivity (MIC) on regulated under-expression of murA,[2],does not affect sensitivity
